The numbers were not newly measured in paper PMC6149849, “Cymantrenyl-Nucleobases: Synthesis, Anticancer, Antitrypanosomal and Antimicrobial Activity Studies” (Molecules : A Journal of Synthetic Chemistry and Natural …, 2017), which cites them from elsewhere.

SMILES strings stand for the structures.

In the series the test system is human myeloid leukemia HL-60 cells. The note with it: cited from earlier work.

For `Nc1ncnc2c1ncn2CCC(O)[C]12[CH]3[CH]4[CH]5[CH]1[Mn]45321[P](c2ccccc2)(c2ccccc2)CC[P]1(c1ccccc1)c1ccccc1.[C-]#[O+]` (racemic) [Compound C], the GI50 (as a rule, the concentration that inhibits growth by half) is 21.8 ± 8.6 µM and the “HL-60 MIC” value was 100 µM.
